Results: PubChem BioAssay (NCI)
Where “and” joins values, the source holds several entries; their conditions need not be identical. Identical values can stand only once.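 All cell lines were grown in 96-well plates and treated with compound for 48 hours. GI50 marks 50% less growth. At the TGI there is no net growth.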

Assays:
Assay in all cases: inhibition of tumour cell growth, NCI panel, 48 h
DMS 273 small cell lung = test system: DMS 273 small cell lung
M19-MEL melanoma = test system: M19-MEL melanoma
SNB-78 CNS = test system: SNB-78 CNS
DLD-1 colon = test system: DLD-1 colon
DMS 114 small cell lung = test system: DMS 114 small cell lung
LXFL 529 NSCLC = test system: LXFL 529 NSCLC
UO-31 renal = test system: UO-31 renal
KM20L2 colon = test system: KM20L2 colon
HOP-18 NSCLC = test system: HOP-18 NSCLC
A498 renal = test system: A498 renal
XF 498 CNS = test system: XF 498 CNS

Row | Structure (SMILES) | TGI (UO-31 renal) [µM] | TGI (A498 renal) [µM] | other results
1 | Cc1ccccc1NC(=O)CSc1nnc(Cc2ccccc2)o1 | > 100 |  | TGI (DMS 273 small cell lung): > 100 µM; TGI (M19-MEL melanoma): > 100 µM; TGI (SNB-78 CNS): > 100 µM; TGI (DLD-1 colon): > 100 µM; TGI (DMS 114 small cell lung): > 100 µM; TGI (LXFL 529 NSCLC): > 100 µM; TGI (KM20L2 colon): > 100 µM; TGI (HOP-18 NSCLC): > 100 µM
2 | C[N+]12CCCCC1C(CN1C(=O)c3ccccc3C1=O)CCC2 (centres undefined) | > 100 | > 100 | 
3 | NCCCCCNOCCCN | > 100 |  | 
4 | Cc1ccc(-n2cc(-c3ccc(Cl)cc3)c(C#N)c2N)cc1 | 26.5 | 35.6 | 
5 | CCOC(=O)c1ccc(Nc2cnc3ccc(C(F)(F)F)cc3n2)cc1 | 48.6 | 33.9 | 
6 | c1ccc(CSC(SCc2ccccc2)c2ccc3c(c2)OCO3)cc1 | > 10 | > 10 | 
7 | N#CCN(Cc1ccccc1)[C@@H]1CCC[C@]1(O)C#Cc1ccc2c(c1)OCO2 | > 100 | 35.1 | 
8 | Cc1[nH]c2ccccc2c1C1=CC(=O)N(c2ccccc2)C1=O | > 100 | 60.3 | 
9 | O=C(O)CO/N=C1/C(c2c(O)[nH]c3ccccc23)=Nc2ccccc21 | > 100 | > 100 | 
10 | O=C1Nc2ccc(Br)cc2/C1=C/C(=O)c1ccccc1 | 6.98 | 34.6 | 
11 | CC(=O)NC1C(OCc2ccccc2)OC(CO)C(O)C1OCC(=O)N1CCCC1C(=O)NC(CCC(=O)NCCCCCNc1c2ccccc2nc2cccc([N+](=O)[O-])c12)C(N)=O (centres undefined) | 0.115 | 0.345 | 
12 | C=CCC1C2CCC(O[Si](C(C)C)(C(C)C)C(C)C)(C(C(=O)OC)C2)C1O (centres undefined) | > 100 | > 100 | 
13 | Nc1cc(N)c(N=Nc2cccc3c(S(=O)(=O)O)cccc23)cc1N=Nc1cc([N+](=O)[O-])ccc1O | > 100 | > 100 | 
14 | CC(C)OP(=O)(OC(C)C)C(Nc1cccc(C(F)(F)F)c1)c1ccccc1 (centres undefined) | > 100 | > 100 | 
15 | Cc1nc2nn(C)cc2c(=O)n1/N=C/c1ccccc1 | > 100 | > 100 | TGI (XF 498 CNS): > 100 µM; TGI (DMS 273 small cell lung): > 100 µM; TGI (M19-MEL melanoma): > 100 µM; TGI (SNB-78 CNS): > 100 µM; TGI (DLD-1 colon): > 100 µM; TGI (DMS 114 small cell lung): > 100 µM; TGI (KM20L2 colon): > 100 µM; TGI (HOP-18 NSCLC): > 100 µM
16 | CC(Nc1n[nH]c(=O)c2c1nnn2Cc1ccccc1)c1ccccc1 (centres undefined) | > 100 |  | GI50 (UO-31 renal): > 100 µM and 23.1 µM
17 | CC/C=C/C(/C=C/C[C@]1(CC)C[C@H](CC)[C@H](CC(=O)O)OO1)CC (some centres undefined) | 0.947 | 28.9 | 
18 | CC(Cc1ccc2c(c1)OCO2)N(C)C(=O)C1=CCN(C)CC1 (centres undefined) | > 100 |  | 
19 | COc1ccccc1Cn1[nH]c(=O)c2cc([N+](=O)[O-])ccc21 | > 100 | > 100 | 
20 | COC(=O)C1(C)OC(C)=NC1(C(=O)OC)C(=O)OC (centres undefined) | > 100 | > 100 | 
21 | O=C(O)CCc1nc2cc3ccccc3cc2[nH]c1=O | > 100 | > 100 | 
22 | COc1cccc(C(=O)N[C@@H]2[C@H](O)[C@@H](CO)O[C@H]2n2cnc3c(N)ncnc32)c1 | > 100 | > 100 | 

Row | Structure (SMILES) | TGI (UO-31 renal) [µM] | TGI (A498 renal) [µM] | other results
23 | O=C1Cc2ccccc2CCc2ccsc21 | > 100 | > 100 | TGI (XF 498 CNS): > 100 µM; TGI (DMS 273 small cell lung): > 100 µM; TGI (M19-MEL melanoma): > 100 µM; TGI (SNB-78 CNS): > 100 µM; TGI (DLD-1 colon): > 100 µM; TGI (LXFL 529 NSCLC): > 100 µM; TGI (KM20L2 colon): > 100 µM; TGI (HOP-18 NSCLC): > 100 µM
24 | Cc1cc(C)nc(NS(=O)(=O)c2ccc(NC(=O)c3cccc4c(N)c5ccccc5nc34)cc2)n1 | > 100 | > 100 | TGI (XF 498 CNS): > 100 µM; TGI (DMS 273 small cell lung): > 100 µM; TGI (M19-MEL melanoma): > 100 µM; TGI (SNB-78 CNS): > 100 µM; TGI (DLD-1 colon): > 100 µM; TGI (DMS 114 small cell lung): > 100 µM; TGI (LXFL 529 NSCLC): > 100 µM; TGI (KM20L2 colon): > 100 µM
25 | C=C(CC)C[C@@H]1C[C@]2(C(=O)OC)c3[nH]c4ccccc4c3CCN2C1=O | 38.6 | 41.1 | 
26 | CC1=C(C(=O)NC(C)(C)C)CC(C(=O)NC(C)(C)C)C(C)N1 (centres undefined) | > 100 | > 100 | 
27 | Oc1ccccc1-n1nc2ccc3nonc3c2n1 | > 100 |  | 
28 | Nc1nc(NCCOCP(=O)(O)O)c(N)c(=O)[nH]1 | > 100 | > 100 | 
29 | O=C(Nc1ccc(S(=O)(=O)Nc2ncccn2)cc1)c1c2ccccc2nc2ccccc12 | > 100 | > 100 | 
30 | S=C(Nc1cccc(C2(N3CCCCC3)CCCCC2)c1)Nc1cccc(C2(N3CCCCC3)CCCCC2)c1 | 31.5 | 35.1 | 
31 | O=C1c2c(ccc3c2CCCC3)CC1Cc1ccc2c(c1)CCCC2 (centres undefined) | > 100 | > 100 | 
32 | COc1ccc(/C=C(\Cl)c2ccc(OC)cc2)cc1 | > 100 | > 100 | TGI (DMS 273 small cell lung): > 100 µM; TGI (M19-MEL melanoma): > 100 µM; TGI (DLD-1 colon): > 100 µM; TGI (DMS 114 small cell lung): > 100 µM; TGI (LXFL 529 NSCLC): > 100 µM; TGI (KM20L2 colon): > 100 µM
33 | CCCc1cc(-c2ccc(-c3cc(CCC)c(C=O)[nH]3)s2)[nH]c1C=O | > 100 | > 100 | TGI (XF 498 CNS): > 100 µM; TGI (DMS 273 small cell lung): > 100 µM; TGI (M19-MEL melanoma): > 100 µM; TGI (SNB-78 CNS): > 100 µM; TGI (DLD-1 colon): > 100 µM; TGI (DMS 114 small cell lung): 65 µM; TGI (LXFL 529 NSCLC): > 100 µM; TGI (HOP-18 NSCLC): > 100 µM
34 | COc1cc2c(cc1OCCCCN1CCN(CCCCOc3cc4c(cc3OC)C(=O)N3CCC[C@H]3C=N4)CC1)N=C[C@@H]1CCCN1C2=O | > 100 | 0.0692 | 
35 | CSc1nc(C)c(CCCl)c(Cl)n1 | > 100 | > 100 | 
36 | CC(C)(CN)SCc1ccccc1 | > 100 | > 100 | 
37 | OC1(c2ccc3ccccc3c2)c2c(c3ccccc3c3ccccc23)C2=NCCN21 (centres undefined) | > 48.8 | 44 | 
38 | CSc1nc(-c2ccc(Cl)cc2)c(C#N)c(=O)[nH]1 | > 100 | > 100 | 
39 | CC[C@H](C)[C@H]1NC(=O)[C@@H](NC(=O)[C@@H](CC(C)C)N(C)C(=O)C2CCCN2C(=O)[C@H](C)O)[C@@H](C)OC(=O)[C@H](Cc2ccccc2)N(C)C(=O)[C@@H]2CCCN2C(=O)[C@H](CC(C)C)NC(=O)[C@@H](C)C(=O)[C@H](C(C)C)OC(=O)C[C@@H]1O (some centres undefined) | < 0.00625 | 0.0508 | 
40 | CCCCCCC(=O)OC[n+]1cccc(-c2c(COC(=O)NC(C)C)c(COC(=O)NC(C)C)c3n2CCC3)c1 | 63.7 | 44.9 | 
41 | CC1(C)CC2(C)ON=C(c3ccccc3)N2c2ccccc2N1 (centres undefined) | 43.6 | 54.4 | 
42 | CCCN(CCC)C(=O)c1c(Cl)c2cccnc2n2c(C)cnc12 | > 100 | > 100 | 
43 | CCOC(=O)NC(=S)NC(C)c1ccccc1 (centres undefined) | > 100 |  | 
44 | COC(=O)CCC(C)[C@H]1CCC2C3C(C[C@H](OC(C)=O)[C@@]21C)[C@@]1(C)CCC2(C[C@H]1C[C@H]3OC(C)=O)OOC1(CCCCC1)OO2 (some centres undefined) | 25.7 | > 100 | 
